Measurements from patent US20260183209A1, “USE OF SANDALORE FOR IMPROVING THE STRUCTURE OF HAIR” (WELLA GERMANY GMBH, priority 2022, published 2026).

Assays:
[1] = system: hair follicles of ex vivo human scalp skin culture; assay: Cross-section / hair shaft diameter in ex vivo human scalp skin culture; type: cell-based
Procedure: (§1) The “cross-section” or “diameter” of hair is determined by the microscopic sectioned, newly formed hair shaft diameter in the keratogenous region (in a distance of around 200-350 μm from the ‘germative matrix’). In an ex vivo human scalp skin culture and treatment, 6 mm skin punches (hairy skin from a healthy donor) were made following the hair growth orientation and maintained in normoxic (37° C., 5% CO2) condition. After 24 h resting (and then keeping) the culture in an Air-Liquid Interphase, two topical treatment were performed (day 1 and 3). Punches were embedded in an optimal cutting temperature compound after 5 days of ex vivo culture and cryosectioned (7 μm sections). The average value is calculated from 5 independent measurements for each hair follicle (HF).
In an ex vivo human scalp skin culture, punches (hairy skin from a human donors) were twice (day 1 and 3) treated topically, and analysed via crysectioning after 5 days. The average value for each hair follicle (HF) is calculated from 5 independent measurements, and the following table indicates the mean of all average values over the total number of hair follices (#HFs) measured.

keratin 85 (KRT85) = assay: Keratin 85 expression, fluorescence intensity in the precortical hair matrix of ex vivo human scalp skin sections; type: cell-based
Procedure: as §1
Expression of keratin 85 (KRT85) is set by fluorescence intensity in the precortical hair matrix with a fluorescence microscope at 20× magnification. Skin sections were co-stained o.n. at 4° C. with a guinea pig anti-KRT85 antibody (Progen, 1:200) followed by DAPI (IUPAC: 4′,6-Diamidino-2-phenylindol) counterstain to visualize the nuclei. The mean KRT85 expression value was calculated from all hair follicles with Image J software within each donor, and fold changes values versus vehicle group were determined.

[2] = molecular target: T1, olfactory receptor OR2AT4 (Homo sapiens, UniProt A6NND4); conditions: receptor expressed in the epithelium of human hair follicles; cited from earlier work
T1 sequence (A6NND4 1-320): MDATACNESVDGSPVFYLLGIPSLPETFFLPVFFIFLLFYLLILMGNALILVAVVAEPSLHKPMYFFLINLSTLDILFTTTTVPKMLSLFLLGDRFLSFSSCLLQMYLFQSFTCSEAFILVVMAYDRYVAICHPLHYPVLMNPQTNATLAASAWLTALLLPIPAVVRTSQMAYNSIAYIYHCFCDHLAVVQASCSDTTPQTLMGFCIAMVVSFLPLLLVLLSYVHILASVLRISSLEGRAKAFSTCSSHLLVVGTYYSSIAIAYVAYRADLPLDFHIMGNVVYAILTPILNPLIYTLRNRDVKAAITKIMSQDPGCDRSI

In the case of `CC1=CCC(CCC(C)C(C)O)C1(C)C` (centres unmarked) [Sandalore, 3-methyl-5-(2,2,3-trimethylcyclopent-3-en-1-yl) pentan-2-ol], the “effect on hair shaft diameter as compared to vehicle” value ([1]; ex vivo human scalp skin culture, vs vehicle) is reported as “increases the hair shaft diameter significantly”, the hair shaft diameter ([1]; ex vivo human scalp skin punches, topical treatment day 1 and 3, cryosectioned after 5 days, mean over all hair follicles) is reported as 51.1 μm and the “KRT85 expression, change vs vehicle group” value (keratin 85 (KRT85); fluorescence intensity, anti-KRT85 antibody staining, precortical hair matrix, mean over hair follicles) is reported as 1.347 fold. For the same compound, the “KRT85 expression, comparison in words” value (keratin 85 (KRT85); fold change values, vs vehicle group or vs Sandalore alone) was “significantly higher” and the “effect on olfactory receptor OR2AT4” value [2] was “stimulatory effect”.
